pIC50: −log10 of the molar value.

One assay concerns the target LSD-1 enzyme (Homo sapiens (Human), UniProt O60341). In kind it is biochemical.
Conditions: not given
The method, then: Example A: LSD1 Histone Demethylase Biochemical Assay
LANCE LSD1/KDM1A demethylase assay—10 μL of 1 nM LSD-1 enzyme (ENZO BML-SE544-0050) in the assay buffer (50 mM Tris, pH 7.5, 0.01% Tween-20, 25 mM NaCl, 5 mM DTT) were preincubated for 1 hour at 25° C. with 0.8 μL compound/DMSO dotted in black 384 well polystyrene plates. […] Reactions were stopped by addition of 10 μL 1× LANCE Detection Buffer (PerkinElmer CR97-100) supplemented with 1.5 nM Eu-anti-unmodified H3K4 Antibody (PerkinElmer TRF0404), and 225 nM LANCE Ultra Streptavidin (PerkinElmer TRF102) along with 0.9 mM Tranylcypromine-HCl (Millipore 616431). After stopping the reactions plates were incubated for 30 minutes and read on a PHERAstar FS plate reader (BMG Labtech).
Regarding `CN(C)CC(=O)N1CCC(CN[C@@H]2C[C@H]2c2ccccc2)(Cc2cccc(C#N)c2)CC1` [Example 57, 3-{[1-[(dimethylamino)acetyl]-4-({[(1R,2S)-2-phenylcyclopropyl]amino}methyl)piperidin-4-yl]methyl}benzonitrile], the pIC50 was above 7.00.

Still in this assay, the particulars now being: 1 nM LSD-1 enzyme, 1 hour preincubation at 25° C., Biotin-labeled Histone H3 peptide substrate.
With `Fc1ccc(CC2(CN[C@@H]3C[C@H]3c3ccccc3)CCNCC2)cc1` [Example 11, (1R,2S)—N-{[4-(4-fluorobenzyl)piperidin-4-yl]methyl}-2-phenylcyclopropanamine], the pIC50 is above 7.00.
Turning to `O=C(O)CCN1CCC(CN[C@@H]2C[C@H]2c2ccccc2)(Cc2cccc(F)c2F)CC1` [Example 19, 3-[4-(2,3-difluorobenzyl)-4-({[(1R,2S)-2-phenylcyclopropyl]amino}methyl)piperidin-1-yl]propanoic Acid], the negative logarithm of the IC50 (pIC50) was above 7.00.
Same read-out and setting: for `O=C(O)c1cccc(CC2(CN[C@@H]3C[C@H]3c3ccccc3)CCN(C3CCOCC3)CC2)c1` [Example 31, 3-{[4-({[(1R,2S)-2-phenylcyclopropyl]amino}methyl)-1-(tetrahydro-2H-pyran-4-yl)piperidin-4-yl]methyl}benzoic Acid] the value was above 7.00.
Still for that read-out and setting: for `O=C(O)CCN1CCC(CN[C@@H]2C[C@H]2c2ccccc2)(Cc2cccc(O[C@@H]3CCOC3)c2)CC1` [Example 35, 3-(4-({[(1R,2S)-2-phenylcyclopropyl]amino}methyl)-4-{3-[(3R)-tetrahydrofuran-3-yloxy]benzyl}piperidin-1-yl)propanoic Acid] the value was above 7.00; for `N#Cc1ccccc1OCC1(CN[C@@H]2C[C@H]2c2ccccc2)CCN(CCC(=O)O)CC1` [Example 43, 3-[4-[(2-cyanophenoxy)methyl]-4-({[(1R,2S)-2-phenylcyclopropyl]amino}methyl)piperidin-1-yl]propanoic Acid], above 7.00; for `O=C(O)CN1CCC(CN[C@@H]2C[C@H]2c2ccccc2)(Cc2ccc(F)cc2)CC1` [Example 13, [4-(4-fluorobenzyl)-4-({[(1R,2S)-2-phenylcyclopropyl]amino}methyl)piperidin-1-yl]acetic], above 7.00.
On the same count and under the same terms, for `N#Cc1cccc(OCC2(CN[C@@H]3C[C@H]3c3ccccc3)CCN(CCC(=O)O)CC2)c1` [Example 47, 3-[4-[(3-cyanophenoxy)methyl]-4-({[(1R,2S)-2-phenylcyclopropyl]amino}methyl)piperidin-1-yl]propanoic Acid] the value was above 7.00; for `O=C(O)c1cccc(CC2(CN[C@@H]3C[C@H]3c3ccccc3)CCN(Cc3ccccn3)CC2)c1` [Example 32, 3-{[4-({[(1R,2S)-2-phenylcyclopropyl]amino}methyl)-1-(pyridin-2-ylmethyl)piperidin-4-yl]methyl}benzoic Acid], above 7.00; for `COCC1(CN[C@@H]2C[C@H]2c2ccccc2)CCN(CCC(=O)O)CC1` [Example 22, 3-[4-(methoxymethyl)-4-({[(1R,2S)-2-phenylcyclopropyl]amino}methyl)piperidin-1-yl]propanoic Acid], above 7.00.
In turn, `O=C(O)CCN1CCC(CN[C@@H]2C[C@H]2c2ccccc2)(Cc2ccccc2F)CC1` [Example 16, 3-[4-(2-fluorobenzyl)-4-({[(1R,2S)-2-phenylcyclopropyl]amino}methyl)piperidin-1-yl]propanoic Acid] had a pIC50 above 7.00.
On the same count and under the same terms, for `CCOc1cccc(CC2(CN[C@@H]3C[C@H]3c3ccccc3)CCN(CCC(=O)O)CC2)c1` [Example 60, 3-[4-(3-ethoxybenzyl)-4-({[(1R,2S)-2-phenylcyclopropyl]amino}methyl)piperidin-1-yl]propanoic Acid] the value was above 7.00.
`CS(=O)(=O)N1CCC(CC#N)(CN[C@@H]2C[C@H]2c2ccccc2)CC1` (relative stereo) [Example 4, (1-(Methylsulfonyl)-4-{[(trans-2-phenylcyclopropyl)amino]methyl}piperidin-4-yl)acetonitrile] had a negative-log IC50 (pIC50) above 7.00.
For the molecule `N#CCCN1CCC(CN[C@@H]2C[C@H]2c2ccccc2)(Cc2cccc(C(=O)O)c2)CC1` [Example 56, 3-{[1-(2-cyanoethyl)-4-({[(1R,2S)-2-phenylcyclopropyl]amino}methyl)piperidin-4-yl]methyl}benzoic Acid], the negative-log IC50 (pIC50) was above 7.00.
On the same count and under the same terms, for `O=C(O)CCN1CCC(CN[C@@H]2C[C@H]2c2ccccc2)(Cc2cccc(OC3CCOCC3)c2)CC1` [Example 36, 3-{4-({[(1R,2S)-2-phenylcyclopropyl]amino}methyl)-4-[3-(tetrahydro-2H-pyran-4-yloxy)benzyl]piperidin-1-yl}propanoic Acid] the value was above 7.00.
Same read-out and setting: for `O=C(O)CCN1CCC(CN[C@@H]2C[C@H]2c2ccccc2)(COCc2ccccc2)CC1` [Example 40, 3-[4-[(benzyloxy)methyl]-4-({[(1R,2S)-2-phenylcyclopropyl]amino}methyl)piperidin-1-yl]propanoic Acid] the value was above 7.00; for `CC(C)N1CCC(CN[C@@H]2C[C@H]2c2ccccc2)(Cc2cccc(C(=O)O)c2)CC1` [Example 34, 3-{[1-isopropyl-4-({[(1R,2S)-2-phenylcyclopropyl]amino}methyl)piperidin-4-yl]methyl}benzoic Acid], above 7.00.
On the same count and under the same terms, for `O=C(O)CCN1CCC(CN[C@@H]2C[C@H]2c2ccccc2)(Cc2cccc(F)c2)CC1` [Example 17, 3-[4-(3-fluorobenzyl)-4-({[(1R,2S)-2-phenylcyclopropyl]amino}methyl)piperidin-1-yl]propanoic Acid] the value was above 7.00; for `CN(C)CC(=O)N1CCC(CN[C@@H]2C[C@H]2c2ccccc2)(Cc2cccc(C(N)=O)c2)CC1` [Example 58, 3-{[1-[(dimethylamino)acetyl]-4-({[(1R,2S)-2-phenylcyclopropyl]amino}methyl)piperidin-4-yl]methyl}benzamide], above 7.00; for `O=C(O)CCN1CCC(CN[C@@H]2C[C@H]2c2ccccc2)(Cc2ccc(F)cc2F)CC1` [Example 18, 3-[4-(2,4-difluorobenzyl)-4-({[(1R,2S)-2-phenylcyclopropyl]amino}methyl)piperidin-1-yl]propanoic Acid], above 7.00.
In the case of `O=C(O)CCN1CCC(CN[C@@H]2C[C@H]2c2ccccc2)(COCC2CCC2)CC1` [Example 52, 3-[4-[(cyclobutylmethoxy)methyl]-4-({[(1R,2S)-2-phenylcyclopropyl]amino}methyl)piperidin-1-yl]propanoic Acid], the pIC50 is above 7.00.
In the case of `C[C@H](N)C(=O)N1CCC(CN[C@@H]2C[C@H]2c2ccccc2)(Cc2ccc(F)cc2)CC1` [Example 14, (1R,2S)—N-{[1-[(2S)-2-aminopropanoyl]-4-(4-fluorobenzyl)piperidin-4-yl]methyl}-2-phenylcyclopropanamine], the negative logarithm of the IC50 (pIC50) was above 7.00.
The same measure, in the same setting: for `O=C(O)CCN1CCC(CN[C@@H]2C[C@H]2c2ccccc2)(Cc2ccc(F)c(F)c2)CC1` [Example 20, 3-[4-(3,4-difluorobenzyl)-4-({[(1R,2S)-2-phenylcyclopropyl]amino}methyl)piperidin-1-yl]propanoic Acid] the value was above 7.00; for `C[C@@H](N)C(=O)N1CCC(CN[C@@H]2C[C@H]2c2ccccc2)(Cc2ccc(F)cc2)CC1` [Example 15, (1R,2S)—N-{[1-[(2R)-2-aminopropanoyl]-4-(4-fluorobenzyl)piperidin-4-yl]methyl}-2-phenylcyclopropanamine], above 7.00.

Source of the values: US10300051B2, “Cyclopropylamines as LSD1 inhibitors” (priority 2014, dated 2019).
